Measured values as given in patent US10888099B2, “Granulation of a Stevia sweetener” (PureCircle Sdn Bhd, priority 2009, dated 2021).
Read-outs that look alike come from different tables or passages of the source. Where a SMILES comes first, the peptide text is derived from it.

Tests used:
[1] = standard sweetening power, Saccharose = 1; cited from earlier work
[2] = cited from earlier work; for solubility: known Rebaudioside A forms, g soluble in 100 g solvent
[3] = cited from earlier work
[4] = type: physicochemical
Description: Hereinafter, unless specified otherwise, the solubility of a material is determined in reverse osmosis water at room temperature. […] The obtained powder was loaded into a 1000 L rotary vacuum dryer and dried at 105° C. at 10 mbar pressure for 3 hours. After 3 hours, preheated nitrogen at 100° C. was introduced into the vacuum chamber till ambient pressure was reached. Upon reaching ambient pressure, the vacuum dryer was connected to a vent and the nitrogen flow was continued at 100 L/min for a 4-hour time period. […] A sample of the powder was withdrawn from the dryer and the solubility tested in deionized water at room temperature.

Compound: OC[C@H]1O[C@@](CO)(O[C@H]2O[C@H](CO)[C@@H](O)[C@H](O)[C@H]2O)[C@@H](O)[C@@H]1O [Saccharose]
- Sweetness power [1]: 1

Compound: C=C1C[C@@]23CC[C@H]4[C@@](C)(CCC[C@@]4(C)C(=O)O[C@@H]4O[C@H](CO)[C@@H](O)[C@H](O)[C@H]4O)[C@@H]2CC[C@]1(O[C@@H]1O[C@H](CO)[C@@H](O)[C@H](O[C@@H]2O[C@H](CO)[C@@H](O)[C@H](O)[C@H]2O)[C@H]1O[C@@H]1O[C@H](CO)[C@@H](O)[C@H](O)[C@H]1O)C3 [Form 4, Rebaudioside A]
- solubility ([2]; listed as amorphous form): greater than 35%
- Rate of dissolution in H2O at 25° C. ([3]; grade in words): High
- Rate of dissolution in H2O at 25° C. ([3]; in 5 minutes): (>35% in

Compound: O=C1NS(=O)(=O)c2ccccc21 [Saccharine]
- Sweetness power [1]: 300

Compound: COc1ccc(CCC(=O)c2c(O)cc(O[C@@H]3O[C@H](CO)[C@@H](O)[C@H](O)[C@H]3O[C@@H]3O[C@@H](C)[C@H](O)[C@@H](O)[C@H]3O)cc2O)cc1O [NHDC, neohesperidin dihydrochalcone]
- Sweetness power [1]: 1000

Compound: C=C1C[C@@]23CC[C@H]4[C@@](C)(CCC[C@@]4(C)C(=O)O[C@@H]4O[C@H](CO)[C@@H](O)[C@H](O)[C@H]4O)[C@@H]2CC[C@]1(O[C@@H]1O[C@H](CO)[C@@H](O)[C@H](O[C@@H]2O[C@H](CO)[C@@H](O)[C@H](O)[C@H]2O)[C@H]1O[C@@H]1O[C@H](CO)[C@@H](O)[C@H](O)[C@H]1O)C3 [Form 1, Rebaudioside A]
- solubility (in words) ([2]; compared among Rebaudioside A forms): lowest solubility
- solubility ([2]; listed as hydrate form): less than 0.2%
- Rate of dissolution in H2O at 25° C. ([3]; grade in words): Very low
- Rate of dissolution in H2O at 25° C. ([3]; in 60 minutes): (<0.2% in

Compound: CC1=CC(=O)NS(=O)(=O)O1 [Acesulfame-K]
- Sweetness power [1]: 200

Compound: C=C1C[C@@]23CC[C@H]4[C@@](C)(CCC[C@@]4(C)C(=O)O[C@@H]4O[C@H](CO)[C@@H](O)[C@H](O)[C@H]4O)[C@@H]2CC[C@]1(O[C@@H]1O[C@H](CO)[C@@H](O)[C@H](O[C@@H]2O[C@H](CO)[C@@H](O)[C@H](O)[C@H]2O)[C@H]1O[C@@H]1O[C@H](CO)[C@@H](O)[C@H](O)[C@H]1O)C3 [Form 2, Rebaudioside A]
- solubility ([2]; listed as anhydrous form of Rebaudioside A): up to 30%
- solubility ([2]; listed as anhydrous form): up to 30%
- Rate of dissolution in H2O at 25° C. ([3]; grade in words): Intermediate
- Rate of dissolution in H2O at 25° C. ([3]; in 5 minutes): (<30% in 5

Compound: COC(=O)[C@H](Cc1ccccc1)NC(=O)[C@@H](N)CC(=O)O [Aspartame] (H-Asp-Phe-OMe)
- Sweetness power [1]: 200

Compound: OC[C@H]1O[C@H](O[C@]2(CCl)O[C@H](CCl)[C@@H](O)[C@@H]2O)[C@H](O)[C@@H](O)[C@H]1Cl [Sucralose]
- Sweetness power [1]: 600

Compound: CC1(C)[C@@H](O[C@H]2O[C@H](C(=O)O)[C@@H](O)[C@H](O)[C@H]2O[C@@H]2O[C@H](C(=O)O)[C@@H](O)[C@H](O)[C@H]2O)CC[C@]2(C)[C@H]3C(=O)C=C4[C@@H]5C[C@@](C)(C(=O)O)CC[C@]5(C)CC[C@@]4(C)[C@]3(C)CC[C@@H]12 [Glycyrrhizin]
- Sweetness power [1]: 50

Compound: C[C@@H](NC(=O)[C@@H](N)CC(=O)O)C(=O)NC1C(C)(C)SC1(C)C [Alitame]
- Sweetness power [1]: 2000

Compound: C=C1C[C@@]23CC[C@H]4[C@@](C)(CCC[C@@]4(C)C(=O)O[C@@H]4O[C@H](CO)[C@@H](O)[C@H](O)[C@H]4O)[C@@H]2CC[C@]1(O[C@@H]1O[C@H](CO)[C@@H](O)[C@H](O[C@@H]2O[C@H](CO)[C@@H](O)[C@H](O)[C@H]2O)[C@H]1O[C@@H]1O[C@H](CO)[C@@H](O)[C@H](O)[C@H]1O)C3 [Form 3, Rebaudioside A]
- solubility ([2]; listed as solvate form): greater than 30%
- Rate of dissolution in H2O at 25° C. ([3]; grade in words): High
- Rate of dissolution in H2O at 25° C. ([3]; in 5 minutes): (>30% in

Compound: Thaumatin
- Sweetness power [1]: 3000

Compound: C=C1C[C@@]23CC[C@H]4[C@@](C)(CCC[C@@]4(C)C(=O)O[C@@H]4O[C@H](CO)[C@@H](O)[C@H](O)[C@H]4O)[C@@H]2CC[C@]1(O[C@@H]1O[C@H](CO)[C@@H](O)[C@H](O)[C@H]1O[C@@H]1O[C@H](CO)[C@@H](O)[C@H](O)[C@H]1O)C3 [Stevioside]
- Sweetness power [1]: 200

Compound: C=C1C[C@@]23CC[C@H]4[C@@](C)(CCC[C@@]4(C)C(=O)O[C@@H]4O[C@H](CO)[C@@H](O)[C@H](O)[C@H]4O)[C@@H]2CC[C@]1(O[C@@H]1O[C@H](CO)[C@@H](O)[C@H](O[C@@H]2O[C@H](CO)[C@@H](O)[C@H](O)[C@H]2O)[C@H]1O[C@@H]1O[C@H](CO)[C@@H](O)[C@H](O)[C@H]1O)C3 [high solubility Rebaudioside A powder, Rebaudioside A]
- dissolution time ([4]; deionized water at room temperature): 7 min

Compound: C=C1C[C@@]23CC[C@H]4[C@@](C)(CCC[C@@]4(C)C(=O)O[C@@H]4O[C@H](CO)[C@@H](O)[C@H](O)[C@H]4O)[C@@H]2CC[C@]1(O[C@@H]1O[C@H](CO)[C@@H](O)[C@H](O[C@@H]2O[C@H](CO)[C@@H](O)[C@H](O)[C@H]2O)[C@H]1O[C@@H]1O[C@H](CO)[C@@H](O)[C@H](O)[C@H]1O)C3 [Rebaudioside A]
- solubility [4]: 1.6%
- Sweetness power [1]: 450
